# Measured values reported in patent publication US9254296B2, “Pharmaceutical composition comprising vitamin D analogue and cosolvent-surfactant mixture” (LEO PHARMA A/S, priority 2009, dated 2016).
# Tests used:
# [1] = tested on: gene encoding cathelicidin; test: Cathelicidin target gene activation assay on reconstructed human epidermis; assay type: cell-based; details: 5%, 10% or 15% by weight of glycerol in the composition
# Description: In psoriasis, the level of cathelicidin is increased in lesional skin of psoriasis patients. […] This finding has been utilized to develop an assay in which the uptake and biological activity of calcipotriol in human keratinocytes from the tested compositions has been determined by measuring the level of induction of the gene encoding cathelicidin.
# In the assay, compositions A, B, C, F, G, I, J, K, L prepared as described in Example 1 above were applied topically in triplicate on reconstructed human epidermis consisting of normal human keratinocytes cultured for 12 days on 0.5 cm^2 polycarbonate filters (available from SkinEthic® Laboratories, Nice, France) in an amount of 10 μl. The tissue was treated for two days followed by separation of the epidermis from the polycarbonate filter and snap-frozen in liquid nitrogen. RNA was extracted from the cells and cDNA synthesized by conventional procedures. Quantitative real-time PCR (qPCR) was then performed using the following assays from Applied Biosystems: CAMP Hs0018038_ml and GAPDH Hs99999905_ml. The expression levels of cathelicidin were normalized to GAPDH and a relative quantification was made by comparison with Daivonex® ointment.
# IL-1α = test: Release of IL-1α from calcipotriol ointment containing glycerol; details: 5%, 10%, 15% by weight of glycerol in a calcipotriol ointment
# [2] = one study, M. Hannuksela et al. 1975; cited from earlier work
compound,measurement,setting,value
OCC(O)CO [glycerol],effect on biological activity of calcipotriol (expression of cathelicidin),[1],potentiating the biological activity of calcipotriol
same,release of IL-1α,IL-1α,reduce the release of IL-1α in a dose-dependent manner
CC(O)CO (stereo not drawn) [propylene glycol],number of irritant reactions,[2],12.5%
